System: NCI-H196 complex spheroid growth, percent test/control
Test: Anticancer human tumor NCI-H196 cell line growth inhibition [AhR];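 also: seven days of drug exposure starting three days after plating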;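 as to viability, T/C: 100% = DMSO vehicle control wells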
Settings: for IC50: curve of first compound; for viability, T/C: stronger effect = lower value
How it was run: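 Complex tumor spheroids co-cultured with HUVEC and human MSC stroma; AhR antagonists tested in combination with standard-of-care and investigational agents. Top concentration at or near clinical Cmax (else 10 microM), half-log dilutions; growth expressed as percent test/control.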

[1] = second compound 0.1 µM, first compound 0.0316 µM
[2] = second compound 0.1 µM, first compound 0.1 µM
[3] = second compound 0.316 µM, first compound 0.0316 µM
[4] = second compound 0.316 µM, first compound 0.1 µM
[5] = second compound 1 µM, first compound 0.0316 µM
[6] = second compound 1 µM, first compound 0.1 µM
[7] = second compound 3.16 µM, first compound 0.0316 µM
[8] = second compound 3.16 µM, first compound 0.1 µM
[9] = second compound 10 µM, first compound 0.0316 µM
[10] = second compound 10 µM, first compound 0.1 µM
[11] = second compound 0.1 µM, first compound 0.316 µM
[12] = second compound 0.1 µM, first compound 1 µM
[13] = second compound 0.1 µM, first compound 3.16 µM
[14] = second compound 0.1 µM, first compound 10 µM
[15] = second compound 0.316 µM, first compound 0.316 µM
[16] = second compound 0.316 µM, first compound 1 µM
[17] = second compound 0.316 µM, first compound 3.16 µM
[18] = second compound 0.316 µM, first compound 10 µM
[19] = second compound 1 µM, first compound 0.316 µM
[20] = second compound 1 µM, first compound 1 µM
[21] = second compound 1 µM, first compound 3.16 µM
[22] = second compound 1 µM, first compound 10 µM
[23] = second compound 3.16 µM, first compound 0.316 µM
[24] = second compound 3.16 µM, first compound 1 µM
[25] = second compound 3.16 µM, first compound 3.16 µM
[26] = second compound 3.16 µM, first compound 10 µM
[27] = second compound 10 µM, first compound 0.316 µM
[28] = second compound 10 µM, first compound 1 µM
[29] = second compound 10 µM, first compound 3.16 µM
[30] = second compound 10 µM, first compound 10 µM

Row | Compound | IC50 (second compound 0.1 µM) | IC50 (second compound 0.316 µM) | IC50 (second compound 1 µM) | IC50 (second compound 3.16 µM) | IC50 (second compound 10 µM) | viability, T/C [1] | viability, T/C [2] | viability, T/C [3] | viability, T/C [4] | viability, T/C [5] | viability, T/C [6] | viability, T/C [7] | viability, T/C [8] | viability, T/C [9] | viability, T/C [10] | viability, T/C [11] | viability, T/C [12] | viability, T/C [13] | viability, T/C [14] | viability, T/C [15] | other results
1 | CC[C@@]1(O)C(=O)OCc2c1cc1n(c2=O)Cc2cc3c(CN(C)C)c(O)ccc3nc2-1 + Cc1ccccc1N=Nc1ccc(NC(=O)c2ccnn2C)c(C)c1 | > 0.1 µM | > 0.1 µM | > 0.1 µM | > 0.1 µM | > 0.1 µM | 112% | 102% | 93.6% | 96.9% | 99.7% | 93.5% | 91.1% | 103% | 102% | 97% |  |  |  |  |  | viability, T/C (second compound 0.1 µM, first compound 0.000316 µM): 92.3%; viability, T/C (second compound 0.1 µM, first compound 0.001 µM): 111%; viability, T/C (second compound 0.1 µM, first compound 0.00316 µM): 93.5%; viability, T/C (second compound 0.1 µM, first compound 0.01 µM): 88.8%; viability, T/C (second compound 0.316 µM, first compound 0.000316 µM): 105%; viability, T/C (second compound 0.316 µM, first compound 0.001 µM): 103%; viability, T/C (second compound 0.316 µM, first compound 0.00316 µM): 98.6%; viability, T/C (second compound 0.316 µM, first compound 0.01 µM): 90.8%; viability, T/C (second compound 1 µM, first compound 0.000316 µM): 101%; viability, T/C (second compound 1 µM, first compound 0.001 µM): 112%; viability, T/C (second compound 1 µM, first compound 0.00316 µM): 98.3%; viability, T/C (second compound 1 µM, first compound 0.01 µM): 98.4%; viability, T/C (second compound 3.16 µM, first compound 0.000316 µM): 97.2%; viability, T/C (second compound 3.16 µM, first compound 0.001 µM): 101%; viability, T/C (second compound 3.16 µM, first compound 0.00316 µM): 109%; viability, T/C (second compound 3.16 µM, first compound 0.01 µM): 86.5%; viability, T/C (second compound 10 µM, first compound 0.000316 µM): 95%; viability, T/C (second compound 10 µM, first compound 0.001 µM): 97.7%; viability, T/C (second compound 10 µM, first compound 0.00316 µM): 89%; viability, T/C (second compound 10 µM, first compound 0.01 µM): 98.3%
2 | COc1cc(C2c3cc4c(cc3C(OC3OC5COC(C)OC5C(O)C3O)C3COC(=O)C23)OCO4)cc(OC)c1O (stereo not given) + Cc1ccccc1N=Nc1ccc(NC(=O)c2ccnn2C)c(C)c1 | > 10 µM | > 10 µM | > 10 µM | > 10 µM | > 10 µM | 97.3% | 93.5% | 92.1% | 95% | 93.5% | 94.6% | 89% | 94.7% | 85.7% | 84.3% | 87.4% | 86.2% | 87.9% | 76.8% | 96.8% | viability, T/C [16]: 89.8%; viability, T/C [17]: 91.2%; viability, T/C [18]: 75.6%; viability, T/C [19]: 93.5%; viability, T/C [20]: 92.1%; viability, T/C [21]: 100%; viability, T/C [22]: 74.3%; viability, T/C [23]: 91.4%; viability, T/C [24]: 79.5%; viability, T/C [25]: 87.1%; viability, T/C [26]: 75.3%; viability, T/C [27]: 89.3%; viability, T/C [28]: 93%; viability, T/C [29]: 88%; viability, T/C [30]: 78.9%
3 | Nc1ccn(C2OC(CO)C(O)C2(F)F)c(=O)n1 (stereo not given) + Cc1ccccc1N=Nc1ccc(NC(=O)c2ccnn2C)c(C)c1 | > 10 µM | > 10 µM | > 10 µM | > 10 µM | > 10 µM | 88.8% | 85.5% | 91.4% | 88.2% | 88.7% | 90.4% | 93.3% | 91.3% | 85.2% | 90.8% | 53.4% | 52.1% | 57.6% | 59.6% | 58.7% | viability, T/C [16]: 54%; viability, T/C [17]: 54.5%; viability, T/C [18]: 60.1%; viability, T/C [19]: 62.5%; viability, T/C [20]: 53.2%; viability, T/C [21]: 56.1%; viability, T/C [22]: 60.2%; viability, T/C [23]: 62.7%; viability, T/C [24]: 57.1%; viability, T/C [25]: 55%; viability, T/C [26]: 55.9%; viability, T/C [27]: 75.9%; viability, T/C [28]: 61.9%; viability, T/C [29]: 60.1%; viability, T/C [30]: 64.3%
